Test results from US20080221150A1, “Prevention of Neurodegeneration by Macrolide Antibiotics” (priority 2005, published 2008).
“Also recorded” adds a separate entry of the source.

Assays:
[1] = system: cerebellar granule neurons (CGNs); assay: Cell viability via Calcein AM fluorogenic conversion assay; settings: for effect on staurosporine-induced decrease in viability: 1 nM bafilomycin A1 + 0.1 μM staurosporine; for chloroquine-induced decrease in viability / cell death: 1 nM macrolide + 20 μM chloroquine
Method: (§1) Cerebellar granule neurons (CGNs) were isolated from postnatal day 7 mice as previously described^40. CGNs were plated in poly-L-lysine coated plates at a density of 1250 cells per mm^2. 48 well plates were used for viability and caspase activity assays; 100 mm dishes were used for western blot analysis; and 4 well […] chamber slides (Agene) were used for analysis of vacuolar acidification.
(§2) CGNs were treated in vitro on day 4. […] Separate cultures of CGNs were also treated for 24 h with staurosporine (0.1 μM), in the presence or absence of BafA1 (1-10 nM final).
(§3) Cell viability (via Calcein AM fluorogenic conversion assay; Molecular Probes, Eugene, Oreg.) and caspase-3-like activity (via fluorogenic DEVD cleavage assay) were performed as previously described 40 and were expressed relative to untreated controls.

caspase-3-like activity = assay: Caspase-3-like activity via fluorogenic DEVD cleavage assay in CGNs; type: cell-based, mice
Method: as §1, §2, §3

cleaved caspase-3 = assay: Western blot of cleaved caspase-3 in CGN lysates; type: cell-based, mice
Method: as §1, §2
Cells were detached from their substrate by incubation for 5 min at 37° C. with Accutase (Innovative Cell Technologies, San Diego, Calif.). Conditioned media and cells were centrifuged (700×g, 5 min, 4° C.). The supernatant was aspirated and re-suspended with 1 ml ice-cold PBS, then centrifuged again (700×g, 5 min, 4° C.). The resultant pellet was re-suspended in lysis buffer containing 25 mM HEPES, 5 mM EDTA, 5 mM MgCl2, 1% SDS, 1% Triton X-100, 1 mM PMSF, 1% protease inhibitor cocktail and 1% phosphatase inhibitor cocktail (Sigma). Cell lysates were sonicated to shear DNA and then centrifuged (10,000 rpm, 10 min, 4° C.), and the resultant supernatant (cleared whole cell lysates) was transferred to a fresh tube. Protein levels were determined subsequently via BCA assay (Pierce). Equal amounts of protein were resolved via SDS-PAGE and transferred to PVDF. After transfer blots were cut in half at approximately 37 kDa. […] Blots were blocked for 1 h, RT (5% milk), followed by overnight incubation with primary antibody. Blots were washed with 1×TBS containing 0.1% Tween 20, then incubated with secondary antibody (goat anti-rabbit IgG, Biorad) for 1 h, RT and subsequently washed. Signal was detected using Supersignal chemiluminescence (Pierce). […] Blots were scanned for densitometric analysis using Biorad Quantity One® software.

[2] = system: cerebellar granule neurons (CGNs); assay: Viable CGNs by viability marker calcein AM during LTR labeling; type: cell-based, mice; settings: 24 h
Method: as §1, §2
(§4) Conditioned media was removed from CGNs grown in 4 well, permanox chamber slides. LTR (0.05 μM; Molecular Probes, Eugene, Oreg.) and Calcein AM (2.5 μg/ml; Molecular Probes, Eugene, Oreg.) were prepared in Locke's Buffer and added to each well for 30 min, 37° C. After this incubation the cells were washed with Locke's Buffer and cover-slipped. Images were captured using a Carl Zeiss Axioskop microscope equipped with epifluorescence.

LC3 = assay: Western blot of LC3 processing (LC3-I, LC3-II) in CGN lysates; type: cell-based, mice
Method: as §1, §2
Cells were detached from their substrate by incubation for 5 min at 37° C. with Accutase (Innovative Cell Technologies, San Diego, Calif.). Conditioned media and cells were centrifuged (700×g, 5 min, 4° C.). The supernatant was aspirated and re-suspended with 1 ml ice-cold PBS, then centrifuged again (700×g, 5 min, 4° C.). The resultant pellet was re-suspended in lysis buffer containing 25 mM HEPES, 5 mM EDTA, 5 mM MgCl2, 1% SDS, 1% Triton X-100, 1 mM PMSF, 1% protease inhibitor cocktail and 1% phosphatase inhibitor cocktail (Sigma). Cell lysates were sonicated to shear DNA and then centrifuged (10,000 rpm, 10 min, 4° C.), and the resultant supernatant (cleared whole cell lysates) was transferred to a fresh tube. Protein levels were determined subsequently via BCA assay (Pierce). Equal amounts of protein were resolved via SDS-PAGE and transferred to PVDF. After transfer blots were cut in half at approximately 37 kDa. […] Blots were blocked for 1 h, RT (5% milk), followed by overnight incubation with primary antibody. Blots were washed with 1×TBS containing 0.1% Tween 20, then incubated with secondary antibody (goat anti-rabbit IgG, Biorad) for 1 h, RT and subsequently washed. Signal was detected using Supersignal chemiluminescence (Pierce). After detection of cleaved caspase-3, the bottom blot was stripped using Restore Western Blot stripping buffer (Pierce) then probed with rabbit anti-LC3 (provided by Uchiyama laboratory), using the same western blot protocol as described above. Blots were scanned for densitometric analysis using Biorad Quantity One® software.

acidic vesicles = assay: Labeling of acidic vesicles in CGNs with Lysotracker Red (LTR); type: cell-based, mice
Method: as §1, §2, §4

p18 Bax = assay: Western blot of p18 Bax in CGNs; type: cell-based, mice
Method: as §1
CGNs were treated in vitro on day 4. […]
Cells were detached from their substrate by incubation for 5 min at 37° C. with Accutase (Innovative Cell Technologies, San Diego, Calif.). Conditioned media and cells were centrifuged (700×g, 5 min, 4° C.). The supernatant was aspirated and re-suspended with 1 ml ice-cold PBS, then centrifuged again (700×g, 5 min, 4° C.). The resultant pellet was re-suspended in lysis buffer containing 25 mM HEPES, 5 mM EDTA, 5 mM MgCl2, 1% SDS, 1% Triton X-100, 1 mM PMSF, 1% protease inhibitor cocktail and 1% phosphatase inhibitor cocktail (Sigma). Cell lysates were sonicated to shear DNA and then centrifuged (10,000 rpm, 10 min, 4° C.), and the resultant supernatant (cleared whole cell lysates) was transferred to a fresh tube. Protein levels were determined subsequently via BCA assay (Pierce). […] Signal was detected using Supersignal chemiluminescence (Pierce). […] Blots were scanned for densitometric analysis using Biorad Quantity One® software.

vacuolar ATPase = settings: cited from earlier work
in vitro = settings: mouse
Method: as §1, §2, §3

Bid = assay: Cleavage of Bid in CGNs; type: cell-based, mice; settings: chloroquine; data not shown
[3] = + chloroquine 20 μM for 24 hours, wild-type CGNs
[4] = bafilomycin A1 by itself, 24 hours
[5] = 10 nM bafilomycin A1, 24 hours, Bax deficiency
[6] = all concentrations of bafilomycin A1 tested + 20 μM chloroquine, 24 hours
[7] = co-addition with 20 μM chloroquine, 24 hours
[8] = 10 nM bafilomycin A1 by itself, 24 hours
[9] = bafilomycin A1 0.3-10 nM + 20 μM chloroquine, 24 hours

Q: For `COC(=O)CC(NC(=O)OC(C)(C)C)C(=O)CF` (stereo not shown) [BOC-aspartyl(Ome)-fluoromethyl ketone, reference compound], which “effect on chloroquine-induced death” value [1, 3] is on record?
A: did not attenuate

Q: What about the “effect on chloroquine-induced increase in caspase-3-like activity” value (caspase-3-like activity; [3]) of the same compound?
A: significantly attenuate

Q: Which “concentration at which increase in cleaved caspase-3 was apparent” value (cleaved caspase-3; [4]) does the source give for `CO/C1=C\C(C)=C\[C@@H](C)[C@@H](O)[C@@H](C)C/C(C)=C/C=C/[C@H](OC)[C@@H]([C@@H](C)[C@@H](O)[C@H](C)[C@@]2(O)C[C@@H](O)[C@H](C)[C@@H](C(C)C)O2)OC1=O` [bafilomycin A1] here?
A: 10 nM

Q: And the “concentrations that attenuated chloroquine-induced increase in cleaved caspase-3” value (cleaved caspase-3; co-treatment with 20 μM chloroquine, 24 hours)?
A: ≤ 1 nM

Q: What about the “numbers of viable neurons” value ([2]; 1 nM bafilomycin A1 + 20 μM chloroquine) of the same compound?
A: increased numbers of viable neurons

Q: What about the “viability by calcein AM” value ([2]; 1 nM bafilomycin A1 by itself) of the same compound?
A: nor did it reduce viability

Q: And the “numbers of viable CGNs” value ([2]; 10 nM bafilomycin A1, presence or absence of chloroquine)?
A: decreased numbers of viable CGNs

Q: And the “effect on staurosporine-induced decrease in viability” value ([1]; 24 hours)?
A: not altered

Q: And the “effect on staurosporine-induced decrease in viability” value ([1]; 24 hours, listed as Bafilomycin A1)?
A: did not prevent the decrease in viability

Q: And the viability ([1]; 1 nM bafilomycin A1 + 20 μM chloroquine, 24 hours)?
A: 88%

Q: And the viability ([1]; 10 nM bafilomycin A1 + 0.1 μM staurosporine, 24 hours)?
A: 20%

Q: And the “reduction in viability in Bax-deficient CGNs” value [1, 5]?
A: prevented

Q: What about the “chloroquine-induced decrease in viability” value ([1]; 10-100 nM bafilomycin A1 + 20 μM chloroquine, 24 hours) of the same compound?
A: still attenuated; also recorded: inhibited chloroquine-induced death

Q: What about the “chloroquine-induced decrease in viability” value [1, 6] of the same compound?
A: significantly attenuated

Q: What about the “concentrations that did not decrease viability” value [1, 4] of the same compound?
A: ≤ 1 nM

Q: And the “concentrations that significantly decreased viability” value [1, 4]?
A: ≥ 10 nM

Q: And the “concentration of maximal attenuation of chloroquine-induced decrease in viability” value [1, 7]?
A: 1 nM

Q: What about the “reduction of chloroquine-induced caspase-3-like activity” value (caspase-3-like activity; 1 nM bafilomycin A1 + 20 μM chloroquine, 24 hours, maximal) of the same compound?
A: 3 fold

Q: What about the “increase in caspase-3-like activity in Bax-deficient CGNs” value (caspase-3-like activity; [5]) of the same compound?
A: prevented

Q: And the “concentrations that did not induce caspase-3-like activity” value (caspase-3-like activity; [4])?
A: ≤ 1 nM

Q: And the “concentrations that increased caspase-3-like activity” value (caspase-3-like activity; [4])?
A: ≥ 10 nM

Q: And the “concentrations that reduced chloroquine-induced increase in caspase-3-like activity” value (caspase-3-like activity; [7])?
A: 0.3 to 1 nM

Q: What about the “levels of LC3-II” value (LC3; [8]) of the same compound?
A: dramatic increase

Q: What about the “ratio of LC3-II/LC3-I” value (LC3; [8]) of the same compound?
A: increase

Q: And the “ratio of LC3-II to LC3-I” value (LC3; [6])?
A: reduction

Q: What about the “chloroquine-induced levels of LC3-II” value (LC3; [9]) of the same compound?
A: did not attenuate

Q: And the “levels of LC3-I” value (LC3; [9])?
A: appeared to increase

Q: And the “levels of LC3-I” value (LC3; bafilomycin A1 by itself, any concentration, 24 hours)?
A: did not change

Q: What about the LTR staining (acidic vesicles; 1 nM bafilomycin A1 + 20 μM chloroquine, 24 h, versus either alone) of the same compound?
A: increase in LTR staining intensity

Q: And the “LTR staining / vacuolar acidification” value (acidic vesicles; 1 nM bafilomycin A1 by itself, 24 h)?
A: did not alter the staining pattern of LTR; also recorded: did not alter vacuolar acidification

Q: And the “LTR staining / vacuolar acidification” value (acidic vesicles; 10 nM bafilomycin A1, presence or absence of chloroquine, 24 h)?
A: prevented any detection of vacuolar acidification by LTR; also recorded: completely prevents LTR staining

Q: What about the “increase in p18 Bax levels” value (p18 Bax; 1 nM bafilomycin A1 with chloroquine 20 μM, 24 hours) of the same compound?
A: inhibits the increase in p18 Bax levels; also recorded: dramatically attenuated

Q: What about the “concentrations reported to inhibit vacuolar ATPase” value (vacuolar ATPase) of the same compound?
A: greater than 1 nM

Q: With `CO/C1=C\C(C)=C\[C@@H](C)[C@@H](O)[C@@H](C)C/C(C)=C/C=C/[C@H](OC)[C@@H]([C@@H](C)[C@@H](O)[C@H](C)[C@@]2(O)C[C@@H](OC(=O)/C=C/C(=O)NC3=C(O)CCC3=O)[C@H](C)[C@@H](C(C)C)O2)OC1=O` [bafilomycin B1] as the compound, how does the “chloroquine-induced decrease in viability / cell death” value ([1]; data not shown) read?
A: inhibited chloroquine induced cell death

Q: What about the “chloroquine-induced decrease in viability / cell death” value ([1]; data not shown, listed as Bafilomycin B1) of the same compound?
A: attenuated

Q: Which “cleaved caspase-3 temporal pattern” value (cleaved caspase-3; 20 μM chloroquine, 4-48 hours) does the source give for `CCN(CC)CCCC(C)Nc1ccnc2cc(Cl)ccc12` (stereo not shown) [chloroquine, reference compound] here?
A: most robust at 16 hours

Q: What about the viability at 8 h, 20 μM (in vitro) of the same compound?
A: 93%

Q: What about the viability at 24 h, 20 μM (in vitro) of the same compound?
A: 24%

Q: What about the viability at 24 h, 40 μM (in vitro) of the same compound?
A: 8%

Q: And the “levels of LC3-I” value (LC3; 20 μM chloroquine, 24-48 hours, versus control)?
A: appeared lower

Q: And the “chloroquine-induced increase in LC3-II in Bax-deficient CGNs” value (LC3; 20 μM chloroquine, 24 hours, Bax deficiency)?
A: did not prevent

Q: What about the “time to elevation of LC3-II” value (LC3; 20 μM chloroquine, remained high through 48 hours) of the same compound?
A: ≤ 4 h

Q: What about the LTR staining (acidic vesicles; 20 μM chloroquine, 24 hours, surviving CGNs versus control) of the same compound?
A: greater intensity of LTR staining

Q: What about the “amount of p18 Bax” value (p18 Bax; chloroquine 20 μM for 24 hours) of the same compound?
A: increased

Q: What about the “cleavage of Bid” value (Bid) of the same compound?
A: not increased

Q: With `C/C=C/[C@H]1O[C@@](O)([C@@H](C)[C@H](O)[C@H](C)[C@H]2OC(=O)/C(OC)=C/C(C)=C/[C@@H](C)[C@@H](O)[C@@H](CC)[C@@H](O)[C@H](C)C/C(C)=C/C=C/[C@@H]2OC)C[C@@H](O)[C@@H]1C` [concanamycin] as the compound, how does the “chloroquine-induced decrease in viability / cell death” value ([1]; data not shown) read?
A: inhibited chloroquine induced cell death

Q: With `C[C@@H]1C[C@@H]([C@H](O)CC2CC(=O)NC(=O)C2)C(=O)[C@@H](C)C1` [cycloheximide, reference compound] as the compound, how does the “effect on magnitude of cell death induced by chloroquine” value ([1]; cycloheximide 0.1-1 mg/ml with chloroquine, data not shown) read?
A: did not alter

Q: With `CN[C@@H]1C[C@H]2O[C@@](C)([C@@H]1OC)n1c3ccccc3c3c4c(c5c6ccccc6n2c5c31)C(=O)NC4` [staurosporine, reference compound] as the compound, how does the viability at 24 h, 0.1 μM (in vitro) read?
A: 44%

Q: And the caspase-3-like activity (caspase-3-like activity; 0.1 μM staurosporine, data not shown)?
A: significantly increases
